From patent publication US20220332742A1, “Naringin-Loaded Metal Organic Frameworks” (Colgate-Palmolive Company, priority 2021, published 2022) come the findings set out here.

In brackets after ≈: the same amount, converted by molar mass.

What all share (format): cell-based
One data set concerns Bacillus subtilis. Nature of the data set: Antibacterial activity, MIC by micro-dilution method. As to conditions: TSB, lowest concentration that completely inhibits growth. Background: In broth dilution the organism is exposed to a series of concentrations in liquid medium.
A short description of data set [1]: EL4 T cell viability, ATP viability assay (ATPLite 1-step Luminescence). The note with it: mouse, EL4 T cells. The method, then:
The ability of naringin-loaded MIL-101(Fe) to promote the viability of EL4 T cells is evaluated using the ATP viability assay (Perkin Elmer, ATPLite 1-step Luminescence Assay). EL4 T cells are seeded at 8000 cells/mL in white 96-well plates and incubated with either naringin or naringin-loaded MIL-101(Fe) (Example 1(d)) at the following concentrations: 3.125, 6.25, 12.5, 25, 50, 100, and 200 μg/mL. The ATP kit solution is then added to each well, and a 96-well microplate reader is used to measure total luminescence. Cell viability is calculated as a percentage of the luminescence of the untreated control.
For orientation: ATP-based viability assays read luminescence as a measure of living cells.

Data set [2] relates to H1299 mouse lung tumor cells. In words: Tumor cell cytotoxicity, ATP viability assay (ATPLite 1-step Luminescence). The method, then:
The ability of naringin-loaded MIL-101(Fe) to kill H1299 […] lung tumor cells is evaluated using the ATP viability assay (Perkin Elmer, ATPLite 1-step Luminescence Assay). H1299 cells are seeded at 5000 cells/mL in white 96-well plates and incubated with either MIL-101(Fe), naringin or naringin-loaded MIL-101(Fe) (Example 1(d) at the following concentrations: 0, 3.125, 25, 50, 100, and 200 μg/mL. The ATP kit solution is then added to each well, and a 96-well microplate reader is used to measure total luminescence. Cell viability is calculated as a percentage of the luminescence of the untreated control. The results are shown in the following table: […]

The test system of the next data set is TNF-alpha. Nature of the data set: TNF-alpha release from EL4 T cells, ELISA. The note with it: 24 hours. Here is the method:
(§1) The ability of naringin-loaded MIL-101(Fe) to promote the release of IL-2 and TNF-alpha from EL4 T cells is evaluated. Enzyme-linked immunosorbent assay (ELISA) is performed according to the manufacturer specifications. Briefly, EL-4 T-cells are incubated in 96-well plates at an initial density of 8000 cells/well. The cell cultures are treated with either MIL-101(Fe), naringin or naringin-loaded MIL-101(Fe) (Example 1(d)) at the following concentrations in PBS: 0, 100, and 200 μg/mL. The plates are incubated for 24 hours at 37° C. in 5% CO2 atmosphere. The solutions are then transferred to a V-shaped 96 well plate and centrifuged at 500 g for 5 minutes. The supernatant solutions are then collected and the recommend ELISA protocol is performed. Absorbance at 450 and 540 nm is measured using a 96-well plate reader, and the results are compared to cytokine standard solutions.

Another data set deals with IL-2. Nature of the data set: IL-2 release from EL4 T cells, ELISA. As to conditions: 24 hours. The method, then:
as §1

The mark [3] stands for this setting: 3.125 µg/mL of agent, % of untreated control.

Procedure for Bacillus subtilis: The antibacterial activity of the prepared MOF complexes is determined against Bacillus subtilis, by calculating minimal inhibitory concentration (MIC) using the micro-dilution method. Briefly, test samples are diluted with TSB solution to 2 mg/mL, and then further serial dilutions are prepared in TSB. Bacterial cultures are incubated in TSB for 16 hours, then 100 microliter suspensions are transferred to 4 mL of fresh medium and incubated for another 6 hours in order to reach mid-log phase stage. Then, the bacteria are diluted to provide 10^6 colony-forming units per mL (CFU/mL) based on OD600 measurement. […] The tested products are the naringin-loaded MOF prepared from 0.5 mg/ml naringin in ethanol, 0.5 mg/mL naringin in 1:4 ethanol/water solution, and 1 mg/mL naringin in 1:2.2 ethanol/water solution.

One may read the MIC as the least concentration at which growth counts as inhibited. A lower MIC goes with a more susceptible organism. The term viability denotes a read-out of living cells in per cent, often relative to untreated cells. The low end stands for a greater loss of cells, the high end for better survival. Consider `C[C@@H]1O[C@@H](O[C@H]2[C@H](Oc3cc(O)c4c(c3)O[C@H](c3ccc(O)cc3)CC4=O)O[C@H](CO)[C@@H](O)[C@@H]2O)[C@H](O)[C@H](O)[C@H]1O` [Naringin], for which, in the data set on Bacillus subtilis, the MIC was found to be 5000 µg/mL (≈ 8.61 mM). In data set [1] (setting [3]), this molecule had a viability at 3.125 µg/mL of 77%. For the same molecule, the viability at 6.25 µg/mL in data set [1] (6.25 µg/mL of agent) was determined as 75.8%. The viability at 12.5 µg/mL in data set [1] (12.5 µg/mL of agent) turned out to be 72.1%. In data set [1] (25 µg/mL of agent), this molecule gave a viability at 25 µg/mL of 67%. The molecule further yielded a viability at 50 µg/mL in data set [1] (50 µg/mL of agent) of 74.9%. Moreover, the viability at 100 µg/mL in data set [1] (100 µg/mL of agent) is 80.3%. In addition, in data set [1] (200 µg/mL of agent), the viability at 200 µg/mL was 84.7%. Moreover, the “Cell viability (%)” value in data set [2] (setting [3]) is recorded as 85.97%; in data set [2] (25 µg/mL of agent), 73.26%; in data set [2] (50 µg/mL of agent) it was 80.15%; in data set [2] (100 µg/mL of agent), 87.10%; in data set [2] (200 µg/mL of agent) it was 83.23%. Also, the TNF-alpha concentration with TNF-alpha (100 µg/mL of agent) is on record as 10.64 pg/mL; in the data set on TNF-alpha (200 µg/mL of agent), 9.92 pg/mL. In addition, the values for the IL-2 concentration in the data set with IL-2 (100 µg/mL of agent) and in the data set with IL-2 (200 µg/mL of agent) were 15.22 pg/mL and 16.49 pg/mL, respectively.
